The subject of assay [1] is BT-20 cells. The assay is described as follows: MTT cytotoxicity assay, BT-20 cells, 72 h. It counts as cell-based, human. The note with it: MTT test, 72 h exposure. The procedure:
(§1) The cytotoxic activity of the samples was screened against the human triple-negative breast cancer BT-20 (HTB-19), HCC1395 (ATCC®CRL-2324), MDA-MB-231 (CRM-HTB-26), and HEK293 (CRL-1573) embryonic kidney cell lines. The cells were cultured in Dulbecco’s modified eagle medium (DMEM) supplemented with 4.5 g/L glutamine and D-glucose, 10% fetal bovine serum (FBS), and a 1% penicillin/streptomycin mixture and incubated at 37 °C under a 5% CO2 humidified atmosphere. Cell passage and seeding performed after washing the adherent cells with PBS and detaching them using a Trypsin solution. The cells were detached and resuspended at 160,000 cells/mL and added into each well of a transparent 384-well plate in the final volume of 25 µL/well (4000 cells per well). The cells were maintained in DMEM containing 10% FBS at 37°C and 5% CO2 overnight. The next day, the 384-well plate was examined under an inverted microscope to identify cell seeding errors, growth characteristics, morphology and equal distribution. Then, the medium in each well was removed using a washer–dispenser (Biotek FX, Beersel, Belgium) and replaced by 40 μL of the fresh medium containing the indicated concentrations of compounds and incubated for 72 h.
(§2) The 250 µg/mL concentrations of methanol extract and 20 mM concentrations of individual compounds were prepared as a stock solution in DMSO (Sigma-Aldrich Chemie GmbH, Taufkirchen, Germany) prior to use. A complete medium was used to prepare this solution. The samples were further serially diluted in DMSO into eleven different concentrations and then added to the complete cell culture medium so as to attain the final concentrations ranging from 250 to 8.6 µg/mL (250, 178.6, 127.6, 91.1, 65.1, 46.5, 33.2, 23.7, 16.9, 12.1, and 8.6 µg/mL) for the extract and 20 to 1.45 µM (20, 15.4, 11.8, 9.1, 7.0, 5.4, 4.1, 3.2, 2.5, 1.9, and 1.5 µM) for the individual compounds in 384-well plates, which were added in four replicates. A 40 µL sample containing medium from each concentration was dispensed into each well. The concentration of the solvent, DMSO, was equal in all the wells and was fixed at 0.05% in the medium. As a negative control, cells were treated with DMEM containing DMSO. Docetaxel (concentration of 0.02 µM to 6.9 nM) is used as a positive control.
(§3) The cytotoxicity of the samples was determined in triplicate using the 3-(4,5-dimethylthiazol-2-yl)-2,5-diphenyltetrazolium bromide (MTT) cell viability assay. The next day, the medium of the 384-well plates treated with samples was removed. Then, 25 µL of MTT solution (0.5 mg MTT in 1 mL PBS) was added to each well and incubated at 37 °C for 2 h. After incubation with MTT for 2 h, the solution was removed from the wells by the washer–dispenser, and the formed formazan crystals were then dissolved in 25 µL of DMSO. After a further 10 min of incubation at room temperature, the samples were mixed briefly, and the absorbance was detected at 510 nm with a Tecan Infinite 200 Pro Reader (Tecan Group Ltd., Männedorf, Switzerland). The cell viability rate (%) was calculated by the following formula:Cell viability rate (%) = ((OD of treated cells − OD of media (blank)/(OD of control cells − OD of media (blank)) × 100%
(§4) The experiments were carried out in four replicates. Continuous variables were presented as the mean ± SD. […] The level of significance was set at p < 0.05. The IC50 (inhibitory concentration which caused 50% inhibition) was estimated using the linear regression method of plots of the percent of cell viability against the concentration of the tested compounds using GraphPad Prism 8.0.1 software (San Diego, CA, USA).
(In general: Tetrazolium assays rely on reduction of a dye to a coloured formazan, in cell work by metabolically active cells.)

The subject of assay [2] is MDA-MB-231 cells. The assay can be described thus: MTT cytotoxicity assay, MDA-MB-231 cells, 72 h. Format: cell-based, human. The note with it: MTT test, 72 h exposure. The procedure: as §1, §2, §3, §4
Assay [3] concerns HCC1395 cells. The assay can be described thus: MTT cytotoxicity assay, HCC1395 cells, 72 h. Format: cell-based, human. The note with it: MTT test, 72 h exposure. The procedure:
as §1, §2, §3, §4

Assay [4] deals with HEK293 cells. The assay is described as follows: MTT cytotoxicity assay, HEK293 embryonic kidney cells, 72 h. It counts as cell-based, human. The note with it: MTT test, 72 h exposure.
The test system of assay [5] is MCF-7, MDA-MB-231, and MDA-MB-468 cells. More on the design: method as in PMID 33192507. Conditions: breast cancer cells; cited from earlier work.
Assay [6] concerns Wnt signaling. The assay can be described thus: TOPFlash assay (Wnt3a-stimulated BT-20 reporter cells). Format: cell-based, human. The note with it: BT-20 cells, 20 µM (extract 20 μg/mL). The procedure:
The TOPFlash assay was performed as described. TNBC BT-20 cell line stably transfected with TopFlash reporter plasmid was seeded at 450,000 cells/mL in a white opaque 384-well plate in the final volume of 25 μL. The cells were maintained and incubated at 37 °C with 5% CO2 overnight for attachment. Subsequently, they were transfected by a plasmid encoding Renilla luciferase under the CMV promoter using 12 μg/mL of DNA and 40 μL/mL XtremeGENE 9 reagent as described in the manufacturer’s protocol. The next day, the medium in each well was replaced with a 20 μL fresh medium containing Wnt3a (2.5 μg/mL) and compound dilution. Compound dilutions were prepared by serial dilution in DMSO and diluted with the amount of medium necessary to obtain their final concentrations indicated on the figures and tables and maintain a concentration of DMSO of 0.05% in all assay points. Wnt3a was added after 1 h of preincubation with compound dilution. After overnight incubation, the supernatant in each well was removed by the washer–dispenser, and the luciferase activity was measured as described. […] Next, the luciferase activity of the firefly and Renilla luciferases was detected sequentially in individual wells of a 384-well plate through the injection of corresponding measurement solutions in Tecan Infinite 200 Pro multifunctional plate reader with an injection module.

Setting [7] is: Homo sapiens, BT-20, average ± SEM, N = 3.
Setting [8] is: Homo sapiens, MDA-MB-231, average ± SEM, N = 3.
Where [9] appears, read: Homo sapiens, HCC1395, average ± SEM, N = 3.
Where [10] appears, read: Homo sapiens, HEK293, average ± SEM, N = 3.

Bounds are passed on as bounds.

A word on the IC50: it is the concentration needed to halve the response being measured. Low readings indicate inhibition by little substance, high ones a need for much substance. Consider `O=C(O)[C@]1(O)C[C@@H](O)[C@@H](O)[C@H](O)C1` [Compound 12, Quinic acid], for which the IC50 in assay [1] (setting [7]), in assay [2] (setting [8]), in assay [3] (setting [9]) and in assay [4] (setting [10]) was > 20 µM each time.
Turning to `COc1cc(/C=C/C(=O)O)ccc1O` [Compound 19, Ferulic acid], the IC50 is > 20 µM in assay [1] (average ± SEM, N = 3); > 20 µM in assay [2] (average ± SEM, N = 3); > 20 µM in assay [3] (average ± SEM, N = 3); > 20 µM in assay [4] (average ± SEM, N = 3).
Take `O=C(O)C=Cc1ccc(O)cc1` [Compound 21, p-Coumaric acid]: the IC50 in assay [1] (setting [7]), in assay [2] (setting [8]), in assay [3] (setting [9]) and in assay [4] (setting [10]) was > 20 µM each time.
For the compound `O=c1cc(-c2ccc(O)cc2)oc2c([C@@H]3OC[C@H](O)[C@H](O)[C@H]3O)c(O)c([C@@H]3O[C@H](CO)[C@@H](O)[C@H](O)[C@H]3O)c(O)c12` [Compound 29, Schaftoside (apigenin 6-C-β-D -glucoside-8-C-α-L-arabinoside)], the IC50 in assay [1] (setting [7]), in assay [2] (setting [8]), in assay [3] (setting [9]) and in assay [4] (setting [10]) was > 20 µM throughout.
For `O=c1cc(-c2ccc(O)cc2)oc2cc(O[C@@H]3O[C@H](CO)[C@@H](O)[C@H](O)[C@H]3O)c([C@@H]3O[C@H](CO)[C@@H](O)[C@H](O)[C@H]3O)c(O)c12` [Compound 38, Saponarin (isovitexin 7-O-β-D-glucoside)], the IC50 in assay [1] (average ± SEM, N = 3) is > 20 µM; in assay [2] (average ± SEM, N = 3), > 20 µM; in assay [3] (average ± SEM, N = 3), > 20 µM; in assay [4] (average ± SEM, N = 3), > 20 µM.
In the case of `C[C@@H]1O[C@@H](OC[C@H]2O[C@@H](Oc3c(-c4ccc(O)c(O)c4)oc4cc(O)cc(O)c4c3=O)[C@H](O)[C@@H](O)[C@@H]2O)[C@H](O)[C@H](O)[C@H]1O` [Compound 41, Rutin (quercetin-3-O-rutinoside)], the 50% inhibitory concentration (IC50) in assay [1] (setting [7]), in assay [2] (setting [8]), in assay [3] (setting [9]) and in assay [4] (setting [10]) was > 20 µM throughout.
In the case of `CC(C)(O)CC[C@@H](O)[C@](C)(O)[C@H]1CC[C@@]2(O)C3=CC(=O)[C@@H]4C[C@@H](O)[C@@H](O)C[C@]4(C)[C@H]3CC[C@]12C` [Compound 50, 20-Hydroxyecdysone], the IC50 in assay [1] (setting [7]), in assay [2] (setting [8]), in assay [3] (setting [9]) and in assay [4] (setting [10]) was > 20 µM throughout. For the same compound, the “Concentration range in which autophagy induction / synergistic effect with doxorubicin was observed” value in assay [5] is 250 to 750 µM.
As for `CC(C)(O)CC[C@@H](O)[C@](C)(O)[C@H]1CC[C@@]2(O)C3=CC(=O)[C@@H]4C[C@@H](O)CC[C@]4(C)[C@H]3CC[C@]12C` [Compound 58, 2-Deoxy-20-hydroxyecdysone], the IC50 in assay [1] (setting [7]) turned out to be 0.12 ± 0.006 µM; in assay [2] (setting [8]), 0.53 ± 0.14 µM; in assay [3] (setting [9]) it was 0.21 ± 0.01 µM; in assay [4] (setting [10]), 0.27 ± 0.01 µM. The “Inhibition of Wnt signaling” value in assay [6] was “not a Wnt signaling inhibitor”.
With `CC1(C)CC[C@]2(C(=O)O)CC[C@]3(C)C(=CC[C@@H]4[C@@]5(C)CC[C@H](O)C(C)(C)[C@@H]5CC[C@]43C)[C@@H]2C1` [Compound 71, Oleanolic acid], the concentration for half-maximal inhibition (IC50) in assay [1] (setting [7]), in assay [2] (setting [8]), in assay [3] (setting [9]) and in assay [4] (setting [10]) was > 20 µM in each case.
Regarding `C[C@H]([C@H](O)CCC(C)(C)O)[C@H]1CC[C@@]2(O)C3=CC(=O)[C@@H]4C[C@@H](O)CC[C@]4(C)[C@H]3CC[C@]12C` [Compound 72, 2-Deoxyecdysone], the IC50 in assay [1] (setting [7]), in assay [2] (setting [8]), in assay [3] (setting [9]) and in assay [4] (setting [10]) was > 20 µM each time.
Take `C[C@H]([C@H](O)CCC(C)(C)O)[C@H]1CC[C@@]2(O)C3=CC(=O)[C@@H]4C[C@@H](O)[C@@H](O)C[C@]4(C)[C@H]3CC[C@]12C` [Compound 73, Ecdysone]: the IC50 in assay [1] (setting [7]), in assay [2] (setting [8]), in assay [3] (setting [9]) and in assay [4] (setting [10]) was > 20 µM throughout.
With `CC(=O)OC(C)(C)CC[C@@H](O)[C@](C)(O)[C@H]1CC[C@@]2(O)C3=CC(=O)[C@@H]4C[C@@H](O)[C@@H](O)C[C@]4(C)[C@H]3CC[C@]12C` [Compound 74, Viticosterone E], the IC50 in assay [1] (setting [7]), in assay [2] (setting [8]), in assay [3] (setting [9]) and in assay [4] (setting [10]) was > 20 µM each time.
Consider `CC(C)(O)CC[C@@H](O)[C@](C)(O)[C@H]1CC[C@@]2(O)C3=CC(=O)[C@@H]4C[C@@H](O)[C@@H](O)C[C@]4(C)[C@H]3[C@H](O)C[C@]12C` [Compound 75, Turkesterone], for which the half-inhibitory concentration (IC50) in assay [1] (setting [7]), in assay [2] (setting [8]), in assay [3] (setting [9]) and in assay [4] (setting [10]) was > 20 µM each time.
In the case of `C[C@@H]1C(=O)O[C@H](C)[C@H]1C[C@@H](O)[C@](C)(O)[C@H]1CC[C@@]2(O)C3=CC(=O)[C@@H]4C[C@@H](O)[C@@H](O)C[C@]4(C)[C@H]3CC[C@]12C` [Compound 76, Cyasterone], the 50% inhibitory concentration (IC50) in assay [1] (setting [7]), in assay [2] (setting [8]), in assay [3] (setting [9]) and in assay [4] (setting [10]) was > 20 µM each time.
Regarding `CC(=O)O[C@@]12CO[C@@H]1C[C@H](O)[C@@]1(C)C(=O)[C@H](O)C3=C(C)[C@@H](OC(=O)[C@H](O)[C@@H](NC(=O)OC(C)(C)C)c4ccccc4)C[C@@](O)([C@@H](OC(=O)c4ccccc4)[C@H]21)C3(C)C` [Docetaxel, reference compound], the IC50 in assay [1] (Homo sapiens, BT-20, positive control) came out at 0.0044 ± 8e-07 µM; in assay [2] (Homo sapiens, MDA-MB-231, positive control), 0.0177 ± 2.9e-06 µM; in assay [3] (Homo sapiens, HCC1395, positive control), 0.0065 ± 7e-07 µM; in assay [4] (Homo sapiens, HEK293, positive control), 0.00447 ± 1.3e-06 µM.
